Literature values, collected in patent publication US10729782B2, “Antibody-drug conjugate produced by binding through linker having hydrophilic structure” (DAIICHI SANKYO COMPANY, LIMITED, priority 2012, dated 2020).

Assays:
[1] = biological target: T1, topoisomerase I (Homo sapiens, UniProt P11387); conditions: compared with SN-38 and topotecan; cited from earlier work
T1 sequence (P11387 1-765): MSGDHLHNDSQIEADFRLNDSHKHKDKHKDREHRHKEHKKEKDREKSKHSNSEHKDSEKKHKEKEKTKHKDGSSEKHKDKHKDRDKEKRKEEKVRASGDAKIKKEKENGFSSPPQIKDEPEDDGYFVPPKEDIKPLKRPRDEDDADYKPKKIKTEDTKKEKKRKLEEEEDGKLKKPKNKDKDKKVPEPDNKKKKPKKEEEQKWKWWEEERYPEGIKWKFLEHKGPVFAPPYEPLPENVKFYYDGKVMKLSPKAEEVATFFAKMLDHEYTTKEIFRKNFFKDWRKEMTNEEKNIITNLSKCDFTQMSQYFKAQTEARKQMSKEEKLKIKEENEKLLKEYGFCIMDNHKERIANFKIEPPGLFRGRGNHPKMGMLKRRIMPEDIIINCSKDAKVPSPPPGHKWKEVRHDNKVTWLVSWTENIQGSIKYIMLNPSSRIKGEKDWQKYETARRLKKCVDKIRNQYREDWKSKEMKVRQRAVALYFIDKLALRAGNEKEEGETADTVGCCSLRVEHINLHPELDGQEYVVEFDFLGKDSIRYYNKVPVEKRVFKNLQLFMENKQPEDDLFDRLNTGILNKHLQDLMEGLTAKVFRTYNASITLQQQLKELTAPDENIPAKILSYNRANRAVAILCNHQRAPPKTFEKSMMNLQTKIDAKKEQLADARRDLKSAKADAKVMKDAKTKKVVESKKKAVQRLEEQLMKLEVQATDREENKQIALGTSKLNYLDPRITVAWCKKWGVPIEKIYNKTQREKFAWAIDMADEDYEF

[2] = tested on: various cancer cells; conditions: against various cancer cells, compared with SN-38 and topotecan; cited from earlier work
[3] = tested on: human tumor subcutaneously transplanted mouse model; conditions: cited from earlier work

CC[C@@]1(O)C(=O)OCc2c1cc1n(c2=O)Cc2c-1nc1cc(F)c(C)c3c1c2[C@@H](N)CC3 [exatecan, (1S,9S)-1-amino-9-ethyl-5-fluoro-2,3-dihydro-9-hydroxy-4-methyl-1H,12H-benzo[de]pyrano[3′,4′:6,7]indolizino[1,2-b]quinolin-10,13(9H,15H)-dione]
inhibitory activity on topoisomerase I [1]: higher than SN-38
in vitro cytocidal activity [2]: higher in vitro cytocidal activity
antitumor effect [3]: potent antitumor effect
